Measurements as given in US11332476B2, “Fms-like tyrosine kinase inhibitors” (3SM BIOTRON INC., priority 2018, dated 2022).

Target: T1, FLT3 (Homo sapiens, UniProt P36888)
T1 sequence (P36888 27-993): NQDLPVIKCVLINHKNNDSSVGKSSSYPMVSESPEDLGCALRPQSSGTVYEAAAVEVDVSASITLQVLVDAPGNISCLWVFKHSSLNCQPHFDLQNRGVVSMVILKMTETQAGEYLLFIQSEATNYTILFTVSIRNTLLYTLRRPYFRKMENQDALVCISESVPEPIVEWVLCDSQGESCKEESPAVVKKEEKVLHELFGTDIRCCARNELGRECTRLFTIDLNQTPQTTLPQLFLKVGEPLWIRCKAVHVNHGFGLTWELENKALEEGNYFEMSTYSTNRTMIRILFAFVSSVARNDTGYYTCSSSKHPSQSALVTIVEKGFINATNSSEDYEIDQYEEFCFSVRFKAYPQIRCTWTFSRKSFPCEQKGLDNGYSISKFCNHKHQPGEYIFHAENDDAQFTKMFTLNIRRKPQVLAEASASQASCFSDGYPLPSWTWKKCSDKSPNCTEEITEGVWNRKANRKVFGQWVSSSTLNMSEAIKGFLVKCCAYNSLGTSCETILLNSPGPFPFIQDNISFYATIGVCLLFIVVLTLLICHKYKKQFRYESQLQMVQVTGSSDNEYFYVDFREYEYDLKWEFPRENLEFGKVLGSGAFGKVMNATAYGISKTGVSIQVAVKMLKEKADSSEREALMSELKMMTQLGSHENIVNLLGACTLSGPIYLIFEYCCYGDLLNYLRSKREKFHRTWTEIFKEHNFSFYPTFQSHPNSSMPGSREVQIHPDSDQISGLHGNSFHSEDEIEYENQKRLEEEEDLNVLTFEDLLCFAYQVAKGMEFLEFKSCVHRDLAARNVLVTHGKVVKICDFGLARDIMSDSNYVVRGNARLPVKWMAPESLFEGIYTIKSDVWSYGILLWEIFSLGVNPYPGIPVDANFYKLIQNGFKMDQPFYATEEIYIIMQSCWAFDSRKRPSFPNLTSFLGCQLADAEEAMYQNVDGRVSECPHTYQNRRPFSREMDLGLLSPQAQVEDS
Assay: Inhibition of FLT3, 33P-ATP kinase assay with filter-binding detection
Assay type: biochemical
Conditions: 33P-ATP 10 uM, 2 hours at room temperature, filter-binding method
Method: Prepare indicated substrate in freshly prepared Base Reaction Buffer (20 mM Hepes (pH 7.5), 10 mM MgCl2, 1 mM EGTA, 0.02% Brij35, 0.02 mg/ml BSA, 0.1 mM Na3VO4, 2 mM DTT, 1% DMSO). Deliver any required cofactors to the substrate solution above. Deliver indicated kinase into the substrate solution and gently mix. The testing compounds in DMSO was added into the kinase reaction mixture by Acoustic technology (Echo550; nanoliter range) and incubated for 20 minutes at room temperature. Deliver 33P-ATP (specific activity […]) into the reaction mixture to initiate the reaction. Incubate kinase reaction for 2 hours at room temperature. Reactions are spotted onto P81 ion exchange paper. Detect kinase activity by filter-binding method.
Inhibition of FLT3 with 4-Quinolone Derivatives

Structure (SMILES) | IC50
Nc1nc2ccccc2c2c1S(=O)(=O)c1ccc(Cl)cc1C2=O [compound 7001, 6-Amino-10-chloro-12H-thiochromeno[2,3-c]quinolin-12-one 7,7-dioxide] | > 1 µM
NCCCNc1nc2ccccc2c2c(=O)c3cc(C(F)(F)F)ccc3sc12 [compound 7201, 6-(3-aminopropylamino)-10-trifluoromethyl-12H-thiochromeno[2,3-c]quinolin-12-one] | > 1 µM
Cc1ccc2sc3c(NCCCN)nc4ccccc4c3c(=O)c2c1 [compound 7202, 6-(3-aminopropylamino)-10-methyl-12H-thiochromeno[2,3-c]quinolin-12-one] | 0.051 to 0.2 µM
NCCCNc1nc2ccccc2c2c(=O)c3cc(OC(F)(F)F)ccc3sc12 [compound 7203, 6-(3-aminopropylamino)-10-(trifluoromethoxy)-12H-thiochromeno[2,3-c]quinolin-12-one] | > 1 µM
NCCCNc1nc2ccccc2c2c(=O)c3cccc(F)c3sc12 [compound 7211, 6-(3-aminopropylamino)-8-fluoro-12H-thiochromeno[2,3-c]quinolin-12-one] | < 0.051 µM
COc1cccc2c(=O)c3c(sc12)c(NCCCN)nc1ccccc13 [compound 7212, 6-(3-aminopropylamino)-8-methoxy-12H-thiochromeno[2,3-c]quinolin-12-one] | < 0.051 µM
NCCCNc1nc2ccccc2c2c(=O)c3cc(F)cc(Cl)c3sc12 [compound 7213, 6-(3-aminopropylamino)-8-chloro-10-fluoro-12H-thiochromeno[2,3-c]quinolin-12-one] | > 1 µM
COc1cccc2c(=O)c3c(sc12)c(NCCCNCCO)nc1ccccc13 [compound 7225, 6-(3-(2-hydroxyethylamino)propylamino)-8-methoxy-12H-thiochromeno[2,3-c]quinolin-12-one] | 0.201 to 0.5 µM
Cc1ccc2sc3c(NCCN)nc4ccccc4c3c(=O)c2c1 [compound 7231, 6-(2-aminoethylamino)-10-methyl-12H-thiochromeno[2,3-c]quinolin-12-one] | < 0.051 µM
CCNc1nc2ccccc2c2c(=O)c3cc(C)ccc3sc12 [compound 7232, 6-(ethylamino)-10-methyl-12H-thiochromeno[2,3-c]quinolin-12-one] | > 1 µM
Cc1ccc2sc3c(NCc4ccccc4)nc4ccccc4c3c(=O)c2c1 [compound 7233, 6-(benzylamino)-10-methyl-12H-thiochromeno[2,3-c]quinolin-12-one] | > 1 µM
NCCNc1nc2ccccc2c2c(=O)c3cccc(F)c3sc12 [compound 7240, 6-(2-aminoethylamino)-8-fluoro-12H-thiochromeno[2,3-c]quinolin-12-one] | < 0.051 µM
CCNc1nc2ccccc2c2c(=O)c3cccc(F)c3sc12 [compound 7241, 6-(ethylamino)-8-fluoro-12H-thiochromeno[2,3-c]quinolin-12-one] | > 1 µM
COc1cccc2c(=O)c3c(sc12)c(NCCN)nc1ccccc13 [compound 7244, 6-(2-aminoethylamino)-8-methoxy-12H-thiochromeno[2,3-c]quinolin-12-one] | < 0.051 µM
CCNc1nc2ccccc2c2c(=O)c3cccc(OC)c3sc12 [compound 7245, 6-(ethylamino)-8-methoxy-12H-thiochromeno[2,3-c]quinolin-12-one] | > 1 µM
COc1cccc2c(=O)c3c(sc12)c(N1CCNCC1)nc1ccccc13 [compound 7247, 8-methoxy-6-(piperazin-1-yl)-12H-thiochromeno[2,3-c]quinolin-12-one] | 0.051 to 0.2 µM
NCCNc1nc2ccccc2c2c(=O)c3cc(F)cc(Cl)c3sc12 [compound 7248, 6-(2-aminoethylamino)-8-chloro-10-fluoro-12H-thiochromeno[2,3-c]quinolin-12-one] | 0.051 to 0.2 µM
NCCCNc1nc2ccccc2c2c(=O)c3cc(F)cc(F)c3sc12 [compound 7252, 6-(3-aminopropylamino)-8,10-difluoro-12H-thiochromeno[2,3-c]quinolin-12-one] | 0.201 to 0.5 µM
NCCNc1nc2ccccc2c2c(=O)c3cc(F)cc(F)c3sc12 [compound 7254, 6-(2-aminoethylamino)-8,10-difluoro-12H-thiochromeno[2,3-c]quinolin-12-one] | 0.051 to 0.2 µM
O=c1c2cc(F)ccc2sc2c(N3CCNCC3)nc3ccc(F)cc3c12 [compound 7425, 2,10-difluoro-6-(piperazin-1-yl)-12H-thiochromeno[2,3-c]quinolin-12-one] | > 1 µM
CCCNc1nc2ccccc2c2c(=O)c3cc(Cl)ccc3sc12 [compound 7703, 10-chloro-6-(propylamino)-12H-thiochromeno[2,3-c]quinolin-12-one] | > 1 µM
NCCCNc1nc2ccccc2c2c(=O)c3cc(Cl)ccc3sc12 [compound 7704, 6-(3-aminopropylamino)-10-chloro-12H-thiochromeno[2,3-c]quinolin-12-one] | 0.501 to 1 µM
Nc1nc2ccccc2c2c(=O)c3cc(F)ccc3sc12 [compound 7705, 6-amino-10-fluoro-12H-thiochromeno[2,3-c]quinolin-12-one] | > 1 µM

Now from value to compound:

IC50 | Structure (SMILES)
> 1 µM | O=c1c2cc(C(F)(F)F)ccc2sc2c(NCCCNCCO)nc3ccccc3c12 [compound 7214, 6-(3-(2-hydroxyethylamino)propylamino)-10-trifluoromethyl-12H-thiochromeno[2,3-c]quinolin-12-one]
0.201 to 0.5 µM | Cc1ccc2sc3c(NCCCNCCO)nc4ccccc4c3c(=O)c2c1 [compound 7215, 6-(3-(2-hydroxyethylamino)propylamino)-10-methyl-12H-thiochromeno[2,3-c]quinolin-12-one]
0.201 to 0.5 µM | O=c1c2cccc(F)c2sc2c(NCCCNCCO)nc3ccccc3c12 [compound 7224, 8-fluoro-6-(3-(2-hydroxyethylamino)propylamino)-12H-thiochromeno[2,3-c]quinolin-12-one]
> 1 µM | O=c1c2cc(F)cc(Cl)c2sc2c(NCCCNCCO)nc3ccccc3c12 [compound 7226, 8-chloro-10-fluoro-6-(3-(2-hydroxyethylamino)propylamino)-12H-thiochromeno[2,3-c]quinolin-12-one]
> 1 µM | O=c1c2cc(F)cc(F)c2sc2c(NCCCNCCO)nc3ccccc3c12 [compound 7253, 8,10-difluoro-6-(3-(2-hydroxyethylamino)propylamino)-12H-thiochromeno[2,3-c]quinolin-12-one]
> 1 µM | NCCCNc1nc2ccc(F)cc2c2c(=O)c3cc(F)ccc3sc12 [compound 7402, 6-(3-aminopropylamino)-2,10-difluoro-12H-thiochromeno[2,3-c]quinolin-12-one]
> 1 µM | NCCCNc1nc2ccc(Cl)cc2c2c(=O)c3cc(F)ccc3sc12 [compound 7403, 6-((3-aminopropyl)amino)-2-chloro-10-fluoro-12H-thiochromeno[2,3-c]quinolin-12-one]
> 1 µM | O=c1c2cc(F)ccc2sc2c(NCCCNCCO)nc3ccc(Cl)cc3c12 [compound 7406, 2-chloro-10-fluoro-6-(3-(2-hydroxyethylamino)propylamino)-12H-thiochromeno[2,3-c]quinolin-12-one]
> 1 µM | COc1ccc2nc(NCCCNCCO)c3sc4ccc(F)cc4c(=O)c3c2c1 [compound 7407, 10-fluoro-6-(3-(2-hydroxyethylamino)propylamino)-2-methoxy-12H-thiochromeno[2,3-c]quinolin-12-one]
> 1 µM | O=c1c2cc(F)ccc2sc2c(NCCCNCCO)nc3ccc(F)cc3c12 [compound 7408, 2,10-difluoro-6-(3-(2-hydroxyethylamino)propylamino)-12H-thiochromeno[2,3-c]quinolin-12-one]
> 1 µM | NCCNc1nc2ccc(F)cc2c2c(=O)c3cc(F)ccc3sc12 [compound 7422, 6-(2-aminoethylamino)-2,10-difluoro-12H-thiochromeno[2,3-c]quinolin-12-one]
> 1 µM | O=c1c2cc(F)ccc2sc2c(NCc3ccccc3)nc3ccc(F)cc3c12 [compound 7424, 6-(benzylamino)-2,10-difluoro-12H-thiochromeno[2,3-c]quinolin-12-one]
> 1 µM | O=c1c2cc(Cl)ccc2sc2c(NCCCNCCO)nc3ccccc3c12 [compound 7701, 10-chloro-6-(3-(2-hydroxyethylamino)propylamino)-12H-thiochromeno[2,3-c]quinolin-12-one]
